# Tests used:
# [1] = biological target: Recombinant human glycogen synthase kinase 3 beta (Homo sapiens, UniProt P49841); experiment: GSK-3 beta inhibition assay; assay type: biochemical; details: 0.5 h, percentage of enzyme activity; for remaining activity at 25 µM: compound at 25 μM; for remaining activity at 50 µM: compound at 50 μM
# Experimental: GSK-3 beta Inhibition Assay
# The GSK-3 beta activity of the compounds of formula (I) according to the present invention was determined by incubation of a mixture of recombinant human GSK-3 enzyme, a phosphate source and GSK-3 substrate in the presence and in the absence of the corresponding test compound, and by measuring the GSK-3 activity of this mixture. The compounds where tested at final concentrations of 25 and 50 μM.
# Recombinant human glycogen synthase kinase 3 beta was assayed in MOPS 11 mM, pH 7.4, EDTA 0.2 mM, EGTA 1.25 mM, MgCl2 26.25 mM and sodium orthovanadate 0.25 mM in the presence of 62.5 μM of Phospho-Glycogen Synthase Peptide-2 (GS-2), 0.5 μCi gamma-^33P-ATP and unlabelled ATP at a final concentration of 12.5 μM. The final assay volume was 20 μl. After incubation for 30 minutes at 30° C., 15 μl aliquots were spotted onto P81 phosphocellulose papers. Filters were washed four times for at least 10 minutes each and counted with 1.5 ml of scintillation cocktail in a scintillation counter.
# (§1) The compounds of formula (I) of the present invention where submitted to the above indicated assays, in order to determine both their GSK-3 inhibition activity and BACE activity inhibition. The results are indicated in Table I and Table II, in percentage of the respective enzyme activity.
# [2] = biological target: T1, rhBACE-1 β-Secretase recombinant human (Homo sapiens, UniProt P56817); experiment: BACE assay (FRET); assay type: biochemical; details: percentage of enzyme activity
# T1 construct: purchased R&D Systems 931-AS
# T1 sequence (P56817 46-457 limits assumed): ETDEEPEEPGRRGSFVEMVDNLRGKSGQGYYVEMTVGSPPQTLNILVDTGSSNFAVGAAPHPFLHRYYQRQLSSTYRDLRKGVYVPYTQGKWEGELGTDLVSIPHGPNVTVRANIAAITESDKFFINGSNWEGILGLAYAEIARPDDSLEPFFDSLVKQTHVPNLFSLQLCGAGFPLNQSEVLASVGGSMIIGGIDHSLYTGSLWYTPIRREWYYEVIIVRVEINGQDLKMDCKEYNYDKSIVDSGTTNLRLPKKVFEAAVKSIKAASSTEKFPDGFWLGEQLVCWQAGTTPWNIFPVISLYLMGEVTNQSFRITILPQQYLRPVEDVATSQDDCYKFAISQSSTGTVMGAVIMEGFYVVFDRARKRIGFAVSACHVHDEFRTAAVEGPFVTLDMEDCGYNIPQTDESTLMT
# Source text: The aim of this assay is to determine if a compound, either synthetic or of marine origin, is a BACE-1 inhibitor, to avoid the formation of Aβ. This assay is based on FRET technology (Fluorescence Resonance Energy Transfer). FRET is used to measure cleavage of a peptide substrate, among other uses. […] When a substrate peptide cleavage occurs, the energy balance is broken and all the donor fluorescence can be observed. The increase in fluorescence is linearly related to the rate of proteolysis (Gordon, G W et al., 1998). In this assay the reaction occurs between an enzyme, purified BACE-1, and a fluorogenic peptidic substrate who present the “Swedish mutation”. The peptide cleavage by BACE-1 produces fluorescence energy and enzymatic activity can be quantified.
# The reagents which are used in this assay are the following: • rhBACE-1 β-Secretase recombinant human (R&D Systems. Ref. 931-AS). • Fluorogenic Peptide Substrate IV (R&D Systems. Ref. ES004). • Beta-SECRETASE INHIBITOR H-4848. (BACHEM. Ref. H-4848.0001). • Sodium acetate.
# The assay is carried out in a 96 wells microplate. The final concentration of substrate is 3.5 μM per well, and the enzyme concentration is 0.5 μg/ml. The final volume of the assay is 100 μl per well and all reagents are diluted in Reaction Buffer. The compounds are tested at a concentration of 10^−5 and 10^−6 M. The control in the assay is the commercial inhibitor β-Secretase inhibitor H-4848 from BACHEM, which is tested at 300 nM. All the samples and controls are studied by duplicate.
# The plate is mixed gently and changes in the fluorescence are measured using a fluorimeter plate reader, with 320 nm excitation filter and 405 nm emission filter. The temperature should be preferably maintained between 25 and 30° C. Measurements are carried out every ten minutes during an hour. The first measure is subtracted from the last to calculate the fluorescence increase, evaluating the enzymatic activity. The 100% activity is calculated as the mean of the results of wells without sample or inhibitor.
# In the cases where abnormal effects in fluorescence were detected, BACE inhibition activity was assayed using BACE-1 (beta-Secretase) FRET ASSAY KIT (Invitrogen, Ref. P2985). Fluorescence was measured with a fluorimeter plate reader, with 544 nm excitation filter and 580 nm emission filter.
# as §1
# Sequence of Recombinant human glycogen synthase kinase 3 beta (P49841 whole entry): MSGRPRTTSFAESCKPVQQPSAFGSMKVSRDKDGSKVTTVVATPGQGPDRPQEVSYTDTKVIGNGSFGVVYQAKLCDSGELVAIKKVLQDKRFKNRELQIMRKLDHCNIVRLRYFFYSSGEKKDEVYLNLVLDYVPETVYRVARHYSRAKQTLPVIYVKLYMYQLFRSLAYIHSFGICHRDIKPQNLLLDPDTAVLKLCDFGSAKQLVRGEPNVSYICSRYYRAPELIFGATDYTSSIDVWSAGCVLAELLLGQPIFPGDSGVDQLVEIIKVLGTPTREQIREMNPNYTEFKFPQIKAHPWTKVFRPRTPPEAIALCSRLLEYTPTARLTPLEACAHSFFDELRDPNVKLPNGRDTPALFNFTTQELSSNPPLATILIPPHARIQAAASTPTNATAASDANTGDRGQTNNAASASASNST
Compound,remaining activity at 25 µM [1] [%],remaining activity at 50 µM [1] [%],% of BACE activity ([2]; compound at 1 μM) [%],% of BACE activity ([2]; compound at 10 μM) [%]
COC(=O)c1ccc(OC(C)=O)c(N(C/C=C(\C)CCC=C(C)C)C/C=C(\C)CCC=C(C)C)c1 [Compound 31],108,17.4,89.5 ± 18,4.5 ± 6
"COc1ccccc1NCC=C(C)CCC=C(C)CCC=C(C)C [Compound 12, (2-Methoxy-phenyl)-(3,7,11-trimethyl-dodeca-2,6,10-trienyl)-amine]",74.8,56.7,94 ± 8,64.5 ± 9
"COC(=O)c1ccc(OC)c(N(CC=C(C)CCC=C(C)CCC=C(C)CCC=C(C)C)CC=C(C)CCC=C(C)CCC=C(C)CCC=C(C)C)c1 [Compound 35, 3-[Bis-(3,7,11,15-tetramethyl-hexadeca-2,6,10,14-tetraenyl)-amino]-4-methoxy-benzoic acid methyl ester]",105,97.9,91 ± 9,41 ± 14

# The next lines start with the values.
remaining activity at 25 µM [1] [%],remaining activity at 50 µM [1] [%],% of BACE activity ([2]; compound at 1 μM) [%],% of BACE activity ([2]; compound at 10 μM) [%],Compound
55.1,13.2,100,100,"COc1ccc(C(=O)N2CCN(CCO)CC2)cc1N(CC=C(C)CCC=C(C)C)CC=C(C)CCC=C(C)C [Compound 39, {3-[Bis-(3,7-dimethyl-octa-2,6-dienyl)-amino]-4-methoxy-phenyl}-[4-(2-hydroxy-ethyl)-piperazin-1-yl]-methanone]"
79.7,80.1,45 ± 12,7 ± 7,"COC(=O)c1ccc(OC)c(NCC=C(C)CCC=C(C)COC2CCCCO2)c1 (stereo not shown) [Compound 36, 3-[3,7-Dimethyl-8-(tetrahydro-pyran-2-yloxy)-octa-2,6-dienylamino]-4-methoxy-benzoic acid methyl ester]"
30.6,15.3,60 ± 14,46 ± 28,"COc1ccc(C(=O)O)cc1N(CC=C(C)CCC=C(C)CCC=C(C)C)CC=C(C)CCC=C(C)CCC=C(C)C [Compound 19, 3-[Bis-(3,7,11-trimethyl-dodeca-2,6,10-trienyl)-amino]-4-methoxy-benzoic acid]"
23.6,2.51,81.5 ± 9,35 ± 10,"COc1ccc(C(=O)N2CCN(CC=Cc3ccccc3)CC2)cc1N(CC=C(C)CCC=C(C)C)CC=C(C)CCC=C(C)C [Compound 38, {3-[Bis-(3,7-dimethyl-octa-2,6-dienyl)-amino]-4-methoxy-phenyl}-[4-(3-phenyl-allyl)-piperazin-1-yl]-methanone]"
